Experimental data as given in patent US20030162777A1, “Novel N-acylated heterocycles” (Recordati S.A., priority 2001, published 2003).

Target: T1, human 5HT1A-serotonergic receptor (Homo sapiens, UniProt P08908)
T1 construct: expressed in transfected cells; host or cells: HeLa (human cell line), stably transfected; cell membranes used
T1 sequence (P08908 1-422): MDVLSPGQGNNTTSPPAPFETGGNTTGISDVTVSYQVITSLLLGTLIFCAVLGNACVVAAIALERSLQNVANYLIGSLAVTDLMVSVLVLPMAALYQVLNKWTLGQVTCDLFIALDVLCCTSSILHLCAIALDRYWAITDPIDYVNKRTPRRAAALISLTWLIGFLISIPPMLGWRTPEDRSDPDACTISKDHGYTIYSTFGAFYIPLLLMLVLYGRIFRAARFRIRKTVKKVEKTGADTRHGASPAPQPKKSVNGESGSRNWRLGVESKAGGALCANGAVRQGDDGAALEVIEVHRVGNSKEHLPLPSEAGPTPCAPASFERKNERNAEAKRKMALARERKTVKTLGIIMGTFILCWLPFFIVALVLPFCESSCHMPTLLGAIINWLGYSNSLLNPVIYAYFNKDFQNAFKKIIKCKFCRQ
Assay: Radioligand binding to recombinant 5-HT1A receptors
Conditions: [3H]8-OH-DPAT 1 nM, membranes of HeLa cells with human 5-HT1A receptor; Ki from IC50 by Cheng & Prusoff; read-out: Binding affinity for 5HT1A receptors, Ki
Procedure, shortened: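 Displacement of 1 nM [3H]8-OH-DPAT (30 min, 30 °C, Tris-HCl pH 7.4 with MgCl2 and pargyline) from recombinant human 5-HT1A in transfected HeLa membranes, stopped by filtration. Specific binding defined against 10 μM 5-HT; IC50 by nonlinear fitting, then Ki by Cheng–Prusoff.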

| Ki | Structure (SMILES) |
| --- | --- |
| 42.9 nM | COc1cc(F)ccc1N1CCN(CC2CCc3cc(-c4ccc(C(C)=O)s4)ccc3N2C(=O)C2CCCCC2)CC1 (stereo not shown) [Example 63, 1-[6-(5-Acetyl-2-thienyl)-1-cyclohexanecarbonyl-1,2,3,4-tetrahydroquinoline-2-ylmethyl)-4-(4-fluoro-2-methoxyphenyl)piperazine] |
| 31.6 nM | O=C(C1CCCCC1)N1c2ccccc2CCC1CN1CCN(C2CCCc3ccccc32)CC1 (stereo not shown) [Example 60A10, 1-(1-Cyclohexanecarbonyl-1,2,3,4-tetrahydroquinoline-2-ylmethyl)-4-[1-(1,2,3,4-tetrahydronaphthyl)]piperazine] |
| 4 nM | O=C(c1ccc(Cl)cc1)N1c2ccccc2CCC1CN1CCN(c2cccc3[nH]ccc23)CC1 (stereo not shown) [Example 68A5, 1-[1-(4-Chlorobenzoyl)-1,2,3,4-tetrahydroquinoline-2-ylmethyl]-4-(4-indolyl)piperazine] |
| 24.2 nM | COc1cc(F)ccc1N1CCN(CC2CCc3cc(C)ccc3N2C(=O)C2CCCCC2)CC1 (stereo not shown) [Example 53, 1-(1-Cyclohexanecarbonyl-6-methyl-1,2,3,4-tetrahydroquinoline-2-ylmethyl)-4-(4-fluoro-2-methoxyphenyl)piperazine] |
| 43.4 nM | CCn1ccc2c(N3CCN(CC4CCc5ccccc5N4C(=O)C4CCCCC4)CC3)cccc21 (stereo not shown) [Example 62A, 1-(1-Cyclohexanecarbonyl-1,2,3,4-tetrahydroquinoline-2-ylmethyl)-4-(1-ethyl-4-indolyl)piperazine] |
| 31.6 nM | O=C(C1CCCCC1)N1c2ccccc2CCC1CN1CCN(c2cccc(Cl)c2Cl)CC1 (stereo not shown) [Example 72A8, 1-(1-Cyclohexanecarbonyl-1,2,3,4-tetrahydroquinolin-2-ylmethyl)-4-(2,3-dichlorophenyl)piperazine] |
| 24.6 nM | O=C(C1CCCCC1)N1c2ccccc2CCC1CN1CCN(c2cccc(Cl)c2)CC1 (stereo not shown) [Example 72A23, 1-(3-Chlorophenyl)-4-(1-cyclohexanecarbonyl-1,2,3,4-tetrahydroquinolin-2-ylmethyl)piperazine] |
| 7.3 nM | Cc1ccccc1NC(=O)N1c2ccccc2CCC1CN1CCN(c2cccc3[nH]ccc23)CC1 (stereo not shown) [Example 69A, 1-(4-Indolyl)-4-[1-(2-methylphenylaminocarbonyl)-1,2,3,4-tetrahydroquinoline-2-ylmethyl]piperazine] |
| 17.6 nM | COc1cc(F)ccc1N1CCN(CC2CCc3ccccc3N2C(=O)CC(C)C)CC1 (stereo not shown) [Example 74A, 1-(4-Fluoro-2-methoxyphenyl)-4-[1-(3-methylbutanoyl)-1,2,3,4-tetrahydroquinolin-2-ylmethyl]piperazine] |
| 10.7 nM | CC(C)(C)C(=O)N1c2ccccc2CCC1CN1CCN(c2cccc3[nH]ccc23)CC1 (stereo not shown) [Example 68A36, 1-[1-(2,2-Dimethylpropionyl)-1,2,3,4-tetrahydroquinoline-2-ylmethyl]-4-(4-indolyl)piperazine] |
| 10.3 nM | O=C(CCOCc1ccccc1)N1c2ccccc2CCC1CN1CCN(c2ccccc2OCC(F)(F)F)CC1 (stereo not shown) [Example 8, 1-[1-(3-Benzyloxypropionyl)-1,2,3,4-tetrahydroquinoline-2-ylmethyl]-4-[2-(2,2,2-trifluoroethoxy)phenyl]piperazine] |
| 9.5 nM | Cc1ccc(F)c(N2CCN(CC3CCc4ccccc4N3C(=O)C3CCCCC3)CC2)c1 (stereo not shown) [Example 35A12, 1-(1-Cyclohexanecarbonyl-1,2,3,4-tetrahydroquinoline-2-ylmethyl)-4-(2-fluoro-5-methylphenyl)piperazine] |
| 31.2 nM | COCCC(=O)N1c2ccccc2CCC1CN1CCN(c2ccccc2OCC(F)(F)F)CC1 (stereo not shown) [Example 7, 1-[1-(3-Methoxypropionyl)-1,2,3,4-tetrahydroquinoline-2-ylmethyl]-4-[2-(2,2,2-trifluoroethoxy)phenyl]piperazine] |
| 17.1 nM | Cn1cc(C(=O)N2c3ccccc3CCC2CN2CCN(c3cccc4[nH]ccc34)CC2)c2ccccc21 (stereo not shown) [Example 68A47, 1-(4-Indolyl)-4-[1-(1-methyl-3-indolylcarbonyl)-1,2,3,4-tetrahydroquinoline-2-ylmethyl]piperazine] |
| 3.6 nM | COc1ccc(C(=O)N2c3cccc(Cl)c3CCC2CN2CCN(c3ccc(F)cc3OC)CC2)cc1 (stereo not shown) [Example 56, 1-[5-Chloro-1-(4-methoxybenzoyl)-1,2,3,4-tetrahydroquinoline-2-ylmethyl]-4-(4-fluoro-2-methoxyphenyl)piperazine] |
| 82 nM | O=C(N1CCOCC1)N1c2ccccc2CCC1CN1CCN(c2cccc3[nH]ccc23)CC1 (stereo not shown) [Example 14, 1-[1-(4-Morpholinocarbonyl)-1,2,3,4-tetrahydroquinoline-2-ylmethyl]-4-(4-indolyl)piperazine] |
| 34.7 nM | O=C(C1CCCCC1)N1c2ccccc2CCC1CN1CCN(c2cc(C(F)(F)F)nc3ccccc23)CC1 (stereo not shown) [Example 72A89, 1-(1-Cyclohexanecarbonyl-1,2,3,4-tetrahydroquinolin-2-ylmethyl)-4-(2-trifluoromethylquinolin-4-yl)piperazine] |
| 3.9 nM | CN(CCOc1cccc2cccnc12)CC1CCc2ccccc2N1C(=O)C1CCCCC1 (stereo not shown) [Example 72A87, N-(1-Cyclohexanecarbonyl-1,2,3,4-tetrahydroquinolin-2-ylmethyl)-2-(8-quinolyloxy)ethylmethylamine] |
| 34.4 nM | O=C(c1c(F)cccc1F)N1c2ccccc2CCC1CN1CCN(c2cccc3[nH]ccc23)CC1 (stereo not shown) [Example 68A28, 1-[1-(2,6-Difluorobenzoyl)-1,2,3,4-tetrahydroquinoline-2-ylmethyl]-4-(4-indolyl)piperazine] |
| 14.3 nM | Cc1oc(S(=O)(=O)N2CCCCC2)cc1C(=O)N1c2ccccc2CCC1CN1CCN(c2cccc3[nH]ccc23)CC1 (stereo not shown) [Example 68A55, 1-(4-Indolyl)-4-[1-(2-methyl-5-piperidin-1-ylsulfonylfuran-3-carbonyl)-1,2,3,4-tetrahydroquinoline-2-ylmethyl]piperazine] |
| 26.8 nM | Cc1oc(S(=O)(=O)N2CCOCC2)cc1C(=O)N1c2ccccc2CCC1CN1CCN(c2cccc3[nH]ccc23)CC1 (stereo not shown) [Example 68A56, 1-(4-Indolyl)-4-[1-(2-methyl-5-morpholin-4-ylsulfonylfuran-3-carbonyl)-1,2,3,4-tetrahydroquinoline-2-ylmethyl]piperazine] |
| 23.9 nM | CN(C)c1ccc(C(=O)N2c3ccccc3CCC2CN2CCN(c3cccc4[nH]ccc34)CC2)cc1 (stereo not shown) [Example 68A1, 1-[1-(4-Dimethylaminobenzoyl)-1,2,3,4-tetrahydroquinoline-2-ylmethyl]-4-(4-indolyl)piperazine] |

| Structure (SMILES) | Ki |
| --- | --- |
| O=C(Cc1ccccc1)N1c2ccccc2CCC1CN1CCN(c2cccc3[nH]ccc23)CC1 (stereo not shown) [Example 68A2, 1-(4-Indolyl)-4-[1-(2-phenylacetyl)-1,2,3,4-tetrahydroquinoline-2-ylmethyl]piperazine] | 13.9 nM |
| CC(C)(C)OC(=O)N1CCC[C@H]1C(=O)N1c2ccccc2CCC1CN1CCN(c2cccc3[nH]ccc23)CC1 (stereo partly drawn) [Example 71A5, 1-[1-(1-tert-Butoxycarbonyl-(2S)-pyrrolidin-2yl)carbonyl-1,2,3,4-tetrahydroquinoline-2-ylmethyl]-4-(4-indolyl)piperazine] | 45 nM |
| O=C(COc1ccccc1)N1c2ccccc2CCC1CN1CCN(c2cccc3[nH]ccc23)CC1 (stereo not shown) [Example 68A42, 1-(4-Indolyl)-4-[1-(2-phenoxyacetyl)-1,2,3,4-tetrahydroquinoline-2-ylmethyl]piperazine] | 19.8 nM |
